Test results: ChEMBL document CHEMBL1123742, “Isozyme-specific enzyme inhibitors. 13. S-[5'(R)-[(N-triphosphoamino)methyl]adenosyl]-L-homocysteine, a potent inhibitor of rat methionine adenosyltransferases” (J Med Chem, 1987)

Assays:
Type in all cases: protein assay
[1] = molecular target: T1, S-adenosylmethionine synthetase (MAT 1 and MAT 2) (Rattus norvegicus, UniProt P13444+P18298); assay: Inhibition constant of compound with kidney (M-2) form of rat methionine adenosyltransferase when ATP was used as variable substrate;Competitive type of inhibition
[2] = molecular target: T1, S-adenosylmethionine synthetase (MAT 1 and MAT 2); assay: Inhibition constant of compound with Novikoff ascitic hepatoma (M-T) form of rat methionine adenosyltransferase when ATP was used as variable substrate;Competitive type of inhibition
[3] = molecular target: T1, S-adenosylmethionine synthetase (MAT 1 and MAT 2); assay: Inhibition constant of compound with kidney (M-2) form of rat methionine adenosyltransferase when methionine was used as variable substrate;Simple non-competitive type of inhibition
[4] = molecular target: T1, S-adenosylmethionine synthetase (MAT 1 and MAT 2); assay: Inhibition constant of compound with Novikoff ascitic hepatoma (M-T) form of rat methionine adenosyltransferase when methionine was used as variable substrate;Simple non-competitive type of inhibition

Row | Ki [1] | Ki [2] | Ki [3] | Ki [4] | Structure (SMILES)
1 | 180 µM | – | – | – | Nc1ncnc2c1ncn2[C@@H]1O[C@H](C(CP(=O)(O)OP(=O)(O)OP(=O)(O)O)SCCC(N)C(=O)O)[C@@H](O)[C@H]1O (single isomer, unassigned; isomer B)
2 | 39 µM | – | – | – | Nc1ncnc2c1ncn2[C@@H]1O[C@H](C(CP(=O)(O)OP(=O)(O)OP(=O)(O)O)SCCC(N)C(=O)O)[C@@H](O)[C@H]1O (single isomer, unassigned; isomer A)

Second part, the compound before the results:

Row | Structure (SMILES) | Ki [1] | Ki [2] | Ki [3] | Ki [4]
3 | Nc1ncnc2c1ncn2[C@@H]1O[C@H]([C@@H](CNP(=O)(O)OP(=O)(O)OP(=O)(O)O)SCCC(N)C(=O)O)[C@@H](O)[C@H]1O (some centres undefined) | – | 20 µM | – | –
4 | Nc1ncnc2c1ncn2C1O[C@H]([C@H](CNP(=O)(O)OP(=O)(O)OP(=O)(O)O)SCCC(N)C(=O)O)[C@@H](O)[C@H]1O (some centres undefined) | 0.36 µM | 0.27 µM | 3 µM | 2.3 µM
5 | Nc1ncnc2c1ncn2C1O[C@H](CCNP(=O)(O)OP(=O)(O)OP(=O)(O)O)[C@@H](O)[C@H]1O (some centres undefined) | 14 µM | – | 580 µM | –
